The numbers were not newly measured in patent US20210319872A1, “DRUG AND DEVICE COMBINATION PRODUCTS WITH IMPROVED SAFETY AND EFFICACY PROFILES” (priority 2016, published 2021), which cites them from elsewhere.

Molecules are shown by their SMILES. Like-named read-outs stand apart in the source and are kept apart here.

For the molecule `CC(C)NCC(O)c1ccc(NS(C)(=O)=O)cc1` (stereo not drawn) [Sotalol (Betapace)], for the setting “in vivo”, the Bradyarrhythmia is 12.3% to 16%; pediatric, 4%), Cardiac dysrhythmia (5%),; the Cardiac dysrhythmia is given as 12.3% to 16%; pediatric, 4%), Cardiac dysrhythmia (5%),; the Cerebrovascular accident result was “Neurologic: Cerebrovascular accident (1%)”; the Chest pain result is “Cardiovascular: Chest pain (Adult, 16%; pediatric, 4%),”. Also, for the setting “in vivo”, the Congestive heart failure result is listed as “Congestive heart failure (1.2% to 3.3%), Heart failure (5%),”; the Disturbance of consciousness result is “Neurologic: Disturbance of consciousness (4%), Dizziness (13.1%”; the Dizziness entry was “Neurologic: Disturbance of consciousness (4%), Dizziness (13.1%”; the Dyspnea result was “Respiratory: Dyspnea (9.2% to 21%)”. Further, where the note is “in vivo”, the Fatigue entry is reported as “Other: Fatigue (18.9% to 20%)”; the Heart failure result is given as “Congestive heart failure (1.2% to 3.3%), Heart failure (5%),”; the Lightheadedness result was “Lightheadedness (12%)”; the Rash entry is reported as “Dermatologic: Rash (5%)”. In addition, the Torsades de pointes result (in vivo) is “Prolonged QT interval, Torsades de pointes (0.5% to 4%)”.
Consider `CCCc1nc2c(C)cc(-c3nc4ccccc4n3C)cc2n1Cc1ccc(-c2ccccc2C(=O)O)cc1` [Telmisartan (Micardis))], for which, for the setting “in vivo”, the Cough result is “Respiratory: Cough (1.6% to 15.6%), Upper respiratory infection”; the “Serious side effects, listed without incidence or only as rare” value is given as “Musculoskeletal: Rhabdomyolysis (rare)”; the Upper respiratory infection result was “(7%)”.
On to `O=C1CCC(N2C(=O)c3ccccc3C2=O)C(=O)N1` (stereo not drawn) [Thalomid], for which, for the setting “erythema nodosum leprosum”, the Nausea was 4.2%; the Rash result is recorded as “nodosum leprosum, 20.8%)”; the Tremor entry is on record as “Tremor (erythema nodosum leprosum, 4.2%; multiple myeloma,”. Also, where the note is “in vivo”, the Ischemic heart disease is on record as 11.1% and the Myocardial infarction entry is listed as “Myocardial infarction (1.3%)”. Further, the “Serious side effect, Cardiovascular” value (listed without frequency) was “Cardiac dysrhythmia”. For the setting “multiple myeloma”, the Asthenia is given as 21.9%; multiple myeloma, 24%), Confusional state (multiple; the “Atrial fibrillation, Grade 3/4” value is recorded as 5%; the Confusional state is 28%; the Dizziness is recorded as 19.2%; multiple myeloma, 23%), Somnolence (erythema nodosum. For the setting “multiple myeloma”, the Dry skin result is recorded as “Dermatologic: Dry skin (multiple myeloma, 21%), Rash (erythema”; the Dyspnea entry is “Respiratory: Dyspnea (multiple myeloma, 42%), Pneumonia”; the Fever is 24%; the Hypocalcemia result is “Endocrine metabolic: Hypocalcemia (multiple myeloma, 72%),”. For the same molecule, where the note is “multiple myeloma”, the Indigestion is 11%; the Leukopenia entry is “multiple myeloma, 35%)”; the Muscle weakness entry is listed as “Musculoskeletal: Muscle weakness (multiple myeloma, 40%)”; the Peripheral edema result was “multiple myeloma, 34%)”. Also, where the note is “multiple myeloma”, the Pneumonia entry is “(multiple myeloma, 15%)”; the Somnolence is at least 3%; the Tremor is 26%); the Weight loss entry was “(multiple myeloma, 23%)”.
Consider `Clc1ccccc1CN1CCc2sccc2C1` [Ticlopidine], for which the Neutropenia (in vivo) was 2.4%.
In the case of `CN(CCOc1ccc(NS(C)(=O)=O)cc1)CCc1ccc(NS(C)(=O)=O)cc1` [Tikosyn], where the note is “in vivo”, the Chest pain result was “Cardiovascular: Chest pain (10%)”; the Dizziness entry was “Neurologic: Dizziness (8%), Headache (11%)”; the Headache result is on record as “Neurologic: Dizziness (8%), Headache (11%)”; the Heart block result was “Cardiovascular: Heart block (up to 1.2%), Prolonged QT interval,”. In addition, where the note is “in vivo”, the Torsades de pointes result is on record as “Torsades de pointes (0.8%), Ventricular arrhythmia (up to 14.5%),”; the Ventricular arrhythmia result was “Torsades de pointes (0.8%), Ventricular arrhythmia (up to 14.5%),”; the Ventricular tachycardia is recorded as at most 12.4%). Further, the “Serious side effect, Cardiovascular” value (listed without frequency) is “Cardiovascular: Heart block (up to 1.2%), Prolonged QT interval,”.
For `CC(C)(C)NC[C@H](O)COc1nsnc1N1CCOCC1` [Timolol (Blocadren)], under “in vivo”, the “Burning sensation in eye” value is listed as “sensation in eye (Ophthalmic, 12.5% to 20%), Dry eyes”; the Cardiac dysrhythmia result is “Cardiovascular: Cardiac dysrhythmia (1%), Myocardial infarction”; the Confusion result was “Neurologic: Confusion (13%), Dizziness (2.3% to 6%, oral),”; the Depression entry was “Psychiatric: Depression (9.2%, ophthalmic), Hallucinations (11%),”. Further, where the note is “in vivo”, the Hallucinations result is “Psychiatric: Depression (9.2%, ophthalmic), Hallucinations (11%),”; the Headache entry is reported as “Headache (1.7%, oral; 1% to 5%, ophthalmic)”; the Psychotic disorder entry is “Psychotic disorder (3%)”; the “Serious side effects, listed without incidence or only as rare” value was “Cardiovascular: Cardiac dysrhythmia (1%), Myocardial infarction”. Under “in vivo, po”, the Bradyarrhythmia result is given as “Cardiovascular: Angina, Bradyarrhythmia (5% to 9.1%, oral),”; the Bronchospasm entry is reported as “Respiratory: Bronchospasm (0.6%, oral)”; the Dizziness entry is on record as “Neurologic: Confusion (13%), Dizziness (2.3% to 6%, oral),”; the Dyspnea entry is listed as “Respiratory: Cough, Dyspnea (1.7%, oral)”. Also, for the setting “in vivo, po”, the Fatigue entry is reported as “Other: Fatigue (3.4% to 5%, oral), Infectious disease”; the Headache entry was “Headache (1.7%, oral; 1% to 5%, ophthalmic)”; the Heart failure result is recorded as “Heart failure (8%, oral), Hypotension”.
`CC1(C)O[C@@H]2[C@@H](CO[C@@]3(COS(N)(=O)=O)OC(C)(C)O[C@@H]23)O1` [Topiramate (Topamax)]: under “in vivo”, the Confusion result is given as “Neurologic: Confusion (3% to 11%), Dizziness (4% to 25%),”; the Dizziness result was “Neurologic: Confusion (3% to 11%), Dizziness (4% to 25%),”; the Fatigue entry was “Other: Fatigue (6% to 16%), Fever (1% to 12%)”; the Fever entry is “Other: Fatigue (6% to 16%), Fever (1% to 12%)”. Further, under “in vivo”, the Flushing entry is on record as “Dermatologic: Flushing (pediatrics, 5%)”; the Hyperammonemia result was “Endocrine metabolic: Hyperammonemia (Adolescents, 26%),”; the Impaired cognition entry is listed as “Impaired cognition (2% to 7%), Impaired psychomotor”; the Impaired psychomotor performance result is reported as “performance (2% to 13%), Memory impairment (3% to 12%),”. For the same molecule, for the setting “in vivo”, the Infectious disease entry was “Immunologic: Infectious disease (2% to 8%)”; the Memory impairment result is on record as “performance (2% to 13%), Memory impairment (3% to 12%),”; the Nephrolithiasis result was “Renal: Nephrolithiasis (adults, 1% to 3%)”; the “Serious side effect, Endocrine metabolic” value is “Hypohidrosis, Increased body temperature, Metabolic acidosis”. For the same molecule, under “in vivo”, the “Serious side effect, Hepatic” value is on record as “Hepatic: Liver failure”; the “Serious side effect, Neurologic” value is “Neurologic: Drug-induced encephalopathy”; the “Serious side effect, Ophthalmic” value is given as “Ophthalmic: Glaucoma, Myopia, Visual field defect (epilepsy,”; the “Serious side effect, Psychiatric” value is on record as “Psychiatric: Suicidal thoughts”. Besides, where the note is “in vivo”, the Somnolence is given as 10%), Somnolence (6% to 29%); the Visual field defect is given as 0.1% to 1%); the Weight decreased result was “(4% to 21%)”.
For `COc1ccccc1Oc1c(NS(=O)(=O)c2ccc(C(C)(C)C)cc2)nc(-c2ncccn2)nc1OCCO` [Tracleer], under “in vivo”, the Decreased hemoglobin entry was “Hematologic: Decreased hemoglobin (6%)”, the “Decreased hemoglobin (Severe)” value is on record as “Hematologic: Decreased hemoglobin (Severe) (3%)”, the Headache entry is listed as “Neurologic: Headache (up to 24%)” and the Hypotension is reported as 7%. For the setting “in vivo”, the “Increased liver aminotransferase level” value is on record as at most 11% and the Palpitations is reported as 5%. In addition, the “Serious side effect, Other” value (listed without frequency) is on record as “Other: Angioedema”.
Turning to `CC#CCn1c(N2CCC[C@@H](N)C2)nc2c1c(=O)n(Cc1nc(C)c3ccccc3n1)c(=O)n2C` [Tradjenta], the Hypoglycemia result is “combination therapy, 22.9%)” (combination therapy) and “Endocrine metabolic: Hypoglycemia (monotherapy, 6.6%;” (monotherapy). For the same molecule, the Nasopharyngitis result (in vivo) is reported as “Respiratory: Nasopharyngitis (7%)”.
Regarding `COc1cccc(C2(O)CCCCC2CN(C)C)c1` (stereo not drawn) [Tramadol (Ultram)], where the note is “in vivo”, the Anaphylactoid reaction result is reported as “Immunologic: Anaphylactoid reaction (less than 1%)”; the Constipation result is on record as “Gastrointestinal: Constipation (10% to 46%), Nausea (13% to”; the Dizziness entry is “Neurologic: Dizziness (7% to 33%), Headache (3% to 32%),”; the Dyspnea entry is given as “Respiratory: Dyspnea (less than 5%), Respiratory depression”. For the same molecule, where the note is “in vivo”, the Flushing result is on record as “Dermatologic: Flushing (7.7% to 15.8%), Pruritus (3% to 11.9%)”; the Headache entry is recorded as “Neurologic: Dizziness (7% to 33%), Headache (3% to 32%),”; the Insomnia result is reported as “Insomnia (1% to 10.9%), Somnolence (4% to 25%)”; the Myocardial infarction result is reported as “Cardiovascular: Myocardial infarction (0.5% to less than 1%)”. In addition, where the note is “in vivo”, the Pancreatitis entry is given as “Gastrointestinal: Pancreatitis (0.5% to less than 1%)”; the Pruritus result was “Dermatologic: Flushing (7.7% to 15.8%), Pruritus (3% to 11.9%)”; the Serotonin syndrome entry is given as “Other: Serotonin syndrome (less than 1%)”; the Somnolence entry is on record as “Insomnia (1% to 10.9%), Somnolence (4% to 25%)”. For the same molecule, for the setting “in vivo”, the Vomiting is reported as 40%), Vomiting (3% to 17%), Xerostomia (1% to 10%) and the Xerostomia was 40%), Vomiting (3% to 17%), Xerostomia (1% to 10%).
In the case of `CCOC(=O)[C@H](CCc1ccccc1)N[C@@H](C)C(=O)N1[C@H](C(=O)O)C[C@H]2CCCC[C@@H]21` [Trandolapril (Mavik)], for the setting “in vivo”, the Cardiogenic shock entry was “Cardiovascular: Cardiogenic shock (3.8%), Intermittent”; the Cough result is “Respiratory: Cough (1.9% to 35%)”; the Dizziness entry is recorded as “Neurologic: Dizziness (1.3% to 23%)”; the Hyperkalemia result is “Endocrine metabolic: Hyperkalemia (0.3% to 5.3%)”. In addition, where the note is “in vivo”, the Hypotension entry is listed as “Cardiovascular: Hypotension (0.6% to 11%), Syncope (5.9%)”; the Indigestion result is “Gastrointestinal: Indigestion (0.3% to 6.4%)”; the Intermittent claudication entry is recorded as “claudication (3.8%)”; the “Serum blood urea nitrogen raised” value is “Renal: Serum blood urea nitrogen raised (9%)”. Moreover, the Syncope result (in vivo) was “Cardiovascular: Hypotension (0.6% to 11%), Syncope (5.9%)”.
